From patent US9815796B2 (Merck Sharp & Dohme Corp., priority 2013, dated 2017)
Where two headings read alike, the source gives them in different places.

Columns and labels:
Rhesus PDE2A3 = Rhesus PDE2A3 (Macaca mulatta, UniProt B3VTJ2); test: PDE2 fluorescence polarization (IMAP FP) inhibition assay, rhesus enzyme; type: biochemical, rhesus macaque
Procedure, shortened: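 Rhesus PDE2A3 came from lysate of transiently transfected AD293 cells, diluted to give 20% substrate conversion. Substrate was 50 nM FAM-cAMP with 1 uM cGMP activator in Tris pH 7.2/MgCl2 buffer, run 60 min at room temperature over 10-point 3-fold dilutions in 1% DMSO. Read-out was IMAP fluorescence polarization (mP) after ≥1 h binding.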

human PDE2A1 = human PDE2A1 (Homo sapiens (Human), UniProt O00408); test: IMAP FP PDE selectivity panel, human PDE2A1; type: biochemical
human PDE2A1, sequence (O00408 other isoform, or with tags, fused parts or gaps): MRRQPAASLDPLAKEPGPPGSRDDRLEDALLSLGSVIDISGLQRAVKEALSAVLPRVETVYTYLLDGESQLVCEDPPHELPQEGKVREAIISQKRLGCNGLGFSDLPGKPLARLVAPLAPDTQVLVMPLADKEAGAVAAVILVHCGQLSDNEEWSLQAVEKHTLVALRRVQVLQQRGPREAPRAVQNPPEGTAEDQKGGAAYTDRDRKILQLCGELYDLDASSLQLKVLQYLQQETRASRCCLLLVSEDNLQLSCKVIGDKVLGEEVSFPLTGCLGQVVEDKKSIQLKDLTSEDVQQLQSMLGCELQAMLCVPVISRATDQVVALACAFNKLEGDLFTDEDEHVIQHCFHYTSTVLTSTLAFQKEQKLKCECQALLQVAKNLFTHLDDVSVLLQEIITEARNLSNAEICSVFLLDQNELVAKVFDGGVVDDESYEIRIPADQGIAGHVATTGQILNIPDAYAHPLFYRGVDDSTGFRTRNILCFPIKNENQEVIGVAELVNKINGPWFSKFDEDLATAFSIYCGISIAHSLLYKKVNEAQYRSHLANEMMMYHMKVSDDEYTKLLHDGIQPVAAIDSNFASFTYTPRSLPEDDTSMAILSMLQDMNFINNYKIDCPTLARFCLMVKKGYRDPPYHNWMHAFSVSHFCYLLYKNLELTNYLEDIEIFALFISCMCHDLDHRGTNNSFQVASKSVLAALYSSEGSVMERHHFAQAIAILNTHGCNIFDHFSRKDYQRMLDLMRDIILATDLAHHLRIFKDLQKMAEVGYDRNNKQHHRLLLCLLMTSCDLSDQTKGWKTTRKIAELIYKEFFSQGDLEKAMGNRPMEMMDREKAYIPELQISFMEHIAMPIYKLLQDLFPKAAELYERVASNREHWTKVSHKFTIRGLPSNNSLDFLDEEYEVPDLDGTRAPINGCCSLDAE
Procedure, shortened: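 GST-tagged human PDE2A1 expressed in insect cells, run at room temperature for 60 min with 50 nM FAM-cAMP containing 1000 nM cGMP, pH 7.2 Tris/MgCl2 buffer. IMAP fluorescence polarization read after binding step.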

[1] = Rhesus PDE2, Lab B, read-out: Rhesus PDE2 Ki (nM) - Lab B
[2] = Human PDE2, Lab B, read-out: Human PDE2 Ki (nM) - Lab B
[3] = Rhesus PDE2, Lab A, read-out: Rhesus PDE2 Ki (nM) - Lab A
[4] = Human PDE2, Lab A, read-out: Human PDE2 Ki (nM) - Lab A

Rhesus PDE2A3, sequence (B3VTJ2 1-941): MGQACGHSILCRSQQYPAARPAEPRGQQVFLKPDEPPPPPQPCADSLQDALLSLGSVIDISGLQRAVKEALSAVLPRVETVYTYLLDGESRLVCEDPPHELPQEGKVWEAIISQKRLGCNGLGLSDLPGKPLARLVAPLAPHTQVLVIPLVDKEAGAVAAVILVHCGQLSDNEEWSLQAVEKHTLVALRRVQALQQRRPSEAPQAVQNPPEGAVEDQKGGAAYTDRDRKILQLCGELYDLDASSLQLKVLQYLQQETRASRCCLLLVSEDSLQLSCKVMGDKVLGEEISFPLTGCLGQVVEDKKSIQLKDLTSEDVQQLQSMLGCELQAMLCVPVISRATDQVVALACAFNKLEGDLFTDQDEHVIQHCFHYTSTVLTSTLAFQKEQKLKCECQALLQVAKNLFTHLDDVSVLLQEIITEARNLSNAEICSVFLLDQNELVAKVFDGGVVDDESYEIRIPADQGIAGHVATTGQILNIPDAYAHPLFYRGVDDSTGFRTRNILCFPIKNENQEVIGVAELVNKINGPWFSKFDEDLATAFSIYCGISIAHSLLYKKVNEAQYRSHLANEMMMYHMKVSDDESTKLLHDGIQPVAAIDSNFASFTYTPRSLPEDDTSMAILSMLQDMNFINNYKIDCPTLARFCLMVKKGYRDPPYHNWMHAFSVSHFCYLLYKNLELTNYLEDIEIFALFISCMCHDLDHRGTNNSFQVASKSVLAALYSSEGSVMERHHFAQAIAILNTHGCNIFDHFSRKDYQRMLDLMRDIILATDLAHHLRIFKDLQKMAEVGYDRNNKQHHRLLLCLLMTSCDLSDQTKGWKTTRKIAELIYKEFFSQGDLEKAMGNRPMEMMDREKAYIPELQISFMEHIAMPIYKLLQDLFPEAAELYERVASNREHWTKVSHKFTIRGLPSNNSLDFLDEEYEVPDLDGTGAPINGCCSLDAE

SMILES | Ki (Rhesus PDE2A3; [1]) [nM] | Ki (human PDE2A1; [2]) [nM] | Ki (Rhesus PDE2A3; [3]) [nM] | Ki (human PDE2A1; [4]) [nM]
O=C(NC(CCO)c1ccc(C(F)(F)F)cc1)c1cc(=O)[nH]c(-c2ccccc2)n1 (stereo not shown) [Example 421, N-{3-hydroxy-1-[4-(trifluoromethyl)phenyl]propyl}-6-oxo-2-phenyl-1,6-dihydropyrimidine-4-carboxamide] | 14 | 9.4 |  | 
Cc1nc(C(=O)NC(c2ccc(C3(C)CC3)c(F)c2)C(C)(C)C)cc(=O)[nH]1 (single isomer, unassigned) [Example 711, (R)- or (S)-N-(1-(3-fluoro-4-(1-methylcyclopropyl)phenyl)-2,2-dimethylpropyl)-2-methyl-6-oxo-1,6-dihydropyrimidine-4-carboxamide] | 5.1 | 3.7 |  | 
CC[C@@H](NC(=O)c1cc(=O)[nH]c(-c2ncccn2)n1)c1ccc(C(F)(F)F)c(F)c1 [Example 264, N-{(1R)-1-[3-fluoro-4-(trifluoromethyl)phenyl]propyl}-6-oxo-1,6-dihydro-2,2′-bipyrimidine-4-carboxamide] | 7.9 | 7.7 | 4.6 | 
CCc1nc(C(=O)N[C@@H](C)c2ccc(C(F)(F)F)cc2)cc(=O)[nH]1 [Example 135, 2-ethyl-6-oxo-N-{(1S)-1-[4-(trifluoromethyl)phenyl]ethyl}-1,6-dihydropyrimidine-4-carboxamide] |  |  | 1650 | 1140
O=C(NC1(c2ccc(SC(F)(F)F)cc2)CCC1)c1cc(=O)[nH]c(C2CC2)n1 [Example 204, 2-cyclopropyl-6-oxo-N-(1-{4-[(trifluoromethyl)sulfanyl]phenyl}cyclobutyl)-1,6-dihydropyrimidine-4-carboxamide] |  |  | 37 | 20
CC(C)(C)[C@@H](NC(=O)c1cc(=O)[nH]c(-c2ncccn2)n1)c1ccc(C(F)(F)F)cc1 [Example 255, N-{(1R)-2,2-dimethyl-1-[4-(trifluoromethyl)phenyl]propyl}-6-oxo-1,6-dihydro-2,2′-bipyrimidine-4-carboxamide] | 4.7 | 4.9 | 3.7 | 
Cc1nc(C(=O)N[C@H](C)c2ccc(C(F)(F)F)c(C)c2)cc(=O)[nH]1 [Example 46, 2-methyl-N-{(1R)-1-[3-methyl-4-(trifluoromethyl)phenyl]ethyl}-6-oxo-1,6-dihydropyrimidine-4-carboxamide] |  |  | 65 | 72
COc1ccc(C(C)(C)c2nc(C(=O)N[C@@H](c3ccc(SC(F)(F)F)c(F)c3)C(C)C)cc(=O)[nH]2)cc1 [Example 491, N-[(1R)-1-{3-fluoro-4-[(trifluoromethyl)sulfanoyl]phenyl}-2-methylpropyl]-2-[1-(4-methoxyphenyl)-1-methylethyl]-6-oxo-1,6-dihydropyrimidine-4-carboxamide] | 27 | 27 |  | 
CC(C)[C@@H](NC(=O)c1cc(=O)[nH]c(-c2ccccc2)n1)c1ccc(OC(F)(F)F)c(F)c1 [Example 127, N-{(1R)-1-[3-fluoro-4-(trifluoromethoxy)phenyl]-2-methylpropyl}-6-oxo-2-phenyl-1,6-dihydropyrimidine-4-carboxamide] | 4.7 | 3.9 | 3.6 | 2.2
COc1ccc(C(C)(C)c2nc(C(=O)N[C@@H](c3ccc(SC(F)(F)F)cc3)C(C)C)cc(=O)[nH]2)cc1 [Example 490, 2-[1-(4-methoxyphenyl)-1-methylethyl]-N-[(1R)-2-methyl-1-{4-[(trifluoromethyl)sulfanyl]phenyl}propyl]-6-oxo-1,6-dihydropyrimidine-4-carboxamide] | 43 | 31 |  | 
Cc1nc(C(=O)NC(CO)c2ccc(C(F)(F)F)cc2)cc(=O)[nH]1 (single isomer, unassigned) [Example 312, (R)- or (S)-N-{2-hydroxy-1-[4-(trifluoromethyl)phenyl]ethyl}-2-methyl-6-oxo-1,6-dihydropyrimidine-4-carboxamide] |  | 52 | 71 | 41
COc1ccc(Cc2nc(C(=O)N[C@@H](c3ccc(OC(F)(F)F)cc3)C(C)C)cc(=O)[nH]2)cc1 [Example 475, 2-(4-methoxybenzyl)-N-{(1R)-2-methyl-1-[4-(trifluoromethoxy)phenyl]propyl}-6-oxo-1,6-dihydropyrimidine-4-carboxamide] | 1.3 | 1.3 |  | 
CC(C)(C)[C@@H](NC(=O)c1cc(=O)[nH]c(-c2ncccn2)n1)c1ccc(C2CC2)c(F)c1 [Example 451, N-[(1R)-1-(4-cyclopropyl-3-fluorophenyl)-2,2-dimethylpropyl]-6-oxo-1,6-dihydro-2,2′-bipyrimidine-4-carboxamide] | 6.7 | 4.8 |  | 
CC(C)c1ccc([C@H](NC(=O)c2cc(=O)[nH]c(C3CC3)n2)C2(C)CC2)cc1 [Example 444, 2-cyclopropyl-N-{(R)-(1-methylcyclopropyl)[4-(1-methylethyl)phenyl]methyl}-6-oxo-1,6-dihydropyrimidine-4-carboxamide] | 2 | 2.5 |  | 
O=C(NC1(c2ccc(C(F)(F)F)c(F)c2)CC1)c1cc(=O)[nH]c(-c2ccccc2)n1 [Example 145, N-{1-[3-fluoro-4-(trifluoromethyl)phenyl]cyclopropyl}-6-oxo-2-phenyl-1,6-dihydropyrimidine-4-carboxamide] |  |  | 2.9 | 2.3
CC(NC(=O)c1cc(=O)[nH]c(-c2ncccn2)n1)c1ccc(Br)cc1 (stereo not shown) [Example 85, N-[1-(4-bromophenyl)ethyl]-6-oxo-1,6-dihydro-2,2′-bipyrimidine-4-carboxamide] |  |  | 60 | 41
COc1ccc(C(C)(C)c2nc(C(=O)N[C@@H](c3ccc(C(F)(F)F)c(F)c3)C(C)C)cc(=O)[nH]2)cc1 [Example 486, N-{(1R)-1-[3-fluoro-4-(trifluoromethyl)phenyl]-2-methylpropyl}-2-[1-(4-methoxyphenyl)-1-methylethyl]-6-oxo-1,6-dihydropyrimidine-4-carboxamide] | 60 | 46 |  | 
CC1([C@@H](NC(=O)c2cc(=O)[nH]c(C3CC3)n2)c2ccc(OC(F)F)cc2)CC1 [Example 443, 2-cyclopropyl-N-[(1R)-[4-(difluoromethoxy)phenyl](1-methylcyclopropyl)methyl]-6-oxo-1,6-dihydropyrimidine-4-carboxamide] | 8 | 7 |  | 
Cc1nc(C(=O)NC(C)c2ccc(-c3ccccc3)cc2)cc(=O)[nH]1 (single isomer, unassigned) [Example 307, (R)- or (S)-N-(1-biphenyl-4-ylethyl)-2-methyl-6-oxo-1,6-dihydropyrimidine-4-carboxamide] |  |  | 17 | 16
Cc1nc(C(=O)NC(C)(C)c2ccc(C(F)(F)F)cc2)cc(=O)[nH]1 [Example 272, 2-methyl-N-{1-methyl-1-[4-(trifluoromethyl)phenyl]ethyl}-6-oxo-1,6-dihydropyrimidine-4-carboxamide] |  | 71 | 42 | 40
C[C@@H](NC(=O)c1cc(=O)[nH]c(Cc2ccc(F)cc2)n1)c1ccc(C(F)(F)F)cc1 [Example 132, 2-(4-fluorobenzyl)-6-oxo-N-{(1R)-1-[4-(trifluoromethyl)phenyl]ethyl}-1,6-dihydropyrimidine-4-carboxamide] |  |  | 34 | 24
COC(=O)c1ccc([C@@H](C)NC(=O)c2cc(=O)[nH]c(-c3ccccc3)n2)cc1 [Example 359, methyl 4-[(1R)-1-{[(6-oxo-2-phenyl-1,6-dihydropyrimidin-4-yl)carbonyl]amino}ethyl]benzoate] | 173 | 129 | 62 | 
CC(C)(C)[C@@H](NC(=O)c1cc(=O)[nH]c(C2CC2)n1)c1ccc(C2CC2)cc1 [Example 447, 2-cyclopropyl-N-[(1R)-1-(4-cyclopropylphenyl)-2,2-dimethylpropyl]-6-oxo-1,6-dihydropyrimidine-4-carboxamide] | 1.3 | 1.4 |  | 
Cc1nc(C(=O)NC(C)(C)c2ccc(OC(F)(F)F)c(F)c2)cc(=O)[nH]1 [Example 48, N-{1-[3-fluoro-4-(trifluoromethoxy)phenyl]-1-methylethyl}-2-methyl-6-oxo-1,6-dihydropyrimidine-4-carboxamide] |  | 80 | 235 | 127
COc1ccc(Cc2nc(C(=O)N[C@@H](c3ccc(SC(F)(F)F)cc3)C(C)(C)C)cc(=O)[nH]2)cc1 [Example 465, N-[(1R)-2,2-dimethyl-1-{4-[(trifluoromethyl)sulfanyl]phenyl}propyl]-2-(4-methoxybenzyl)-6-oxo-1,6-dihydropyrimidine-4-carboxamide] | 0.62 | 0.62 |  | 
CCc1ccc(C(C)NC(=O)c2cc(=O)[nH]c(-c3ccccc3)n2)cc1 (stereo not shown) [Example 165, N-[1-(4-ethylphenyl)ethyl]-6-oxo-2-phenyl-1,6-dihydropyrimidine-4-carboxamide] |  |  | 16 | 12
C[C@@H](NC(=O)c1cc(=O)[nH]c(-c2ncccn2)n1)c1ccc(OC(F)(F)F)c(F)c1 [Example 103, N-{(1R)-1-[3-fluoro-4-(trifluoromethoxy)phenyl]ethyl}-6-oxo-1,6-dihydro-2,2′-bipyrimidine-4-carboxamide] |  |  | 5.5 | 3.4
CC[C@@H](NC(=O)c1cc(=O)[nH]c(-c2ncccn2)n1)c1ccc(OC(F)(F)F)cc1 [Example 106, 6-oxo-N-{(1R)-1-[4-(trifluoromethoxy)phenyl]propyl}-1,6-dihydro-2,2′-bipyrimidine-4-carboxamide] |  |  | 12 | 5.6
